Counter-ions that a name gives are not always drawn.
Biological target: T1, H^+/K^+-ATPase (Sus scrofa, UniProt P19156)
T1 construct: used as an enzyme source of the in vitro enzyme reaction assay of proton pump; from tissue; host or cells: hog gastric fundic mucosa (membrane vesicles, lyophilized)
Experiment: Inhibitory effects on proton pump (H^+/K^+-ATPase) activity, hog gastric vesicles
Assay type: biochemical
Settings: K^+ stimulated H^+/K^+-ATPase activity, hog gastric vesicle, Pi measured at 620 nm
Method: Preparation of Gastric Proton Pump Vesicles
The hog fundic regions containing parietal and peptic cells were scraped with slide-glass. The collected cells were suspended in 10 ml of 0.25M sucrose buffer and homogenized using a tight-fitting Teflon-glass homogenizer. The homogenate was centrifuged for 35 min at 8,000 rpm and the pellet was discarded. The supernatant was further centrifuged for 75 min at 25,000 rpm. The resulting pellets were re-suspended in the sucrose buffer (10 ml), and then the suspension was laid onto discontinuous density gradients consisting of 0.25M sucrose buffer and isolation medium containing 9% Ficoll (w/w). After being centrifuged for 3 hours and 15 minutes at 100,000×g, the material at the interface of sucrose buffer and Ficoll solution was collected and then centrifuged for 40 minutes at 100,000×g. The resulting pellets were re-suspended in 1 ml of 5 mM Hepes/Tris buffer (pH 6.1). This material was lyophilized and stored at −70° C. and used as an enzyme source of the in vitro enzyme reaction assay of proton pump.
1-2. Measurement of Inhibitory Effects on Proton Pump (H+/K+-ATPase) activity
The inhibitory effects of the compounds of the present invention against proton pump activity were evaluated in 96-well plate. In this assay, the K^+ specific H^+/K^+-ATPase activity was calculated based on the difference between the activity of H^+/K^+-ATPase activity with K^+ and without K^+ ion. In 96-well plate, 1% dimethylsulfoxide (DMSO) in buffer was added to negative and positive control groups and the diluted compounds of the present invention in buffer were added to test group. All assays were performed in 100 μl reaction volume at room temperature, and the hog gastric vesicle was kept in ice before use. At the beginning of the reaction, 10 μl of reaction buffer containing 1% DMSO was added to the negative and positive control groups and to each concentration of compounds in the test group. Then lyophilized vesicle in 5 mM Pipes/Tris buffer (pH 6.1) was pre-incubated in the presence of various concentrations of test compounds. After a 5 minute incubation, negative and positive buffers were respectively added to the previous reaction mixture. As the substrate, ATP was added to the reaction buffer, and incubated for 30 minutes at 37° C. Enzymatic activity was stopped by the addition of colorimetric reagent (2× malachite green, 1× ammonium molybdate, 1× polyvinyl alcohol, 2× H2O) and the amount of mono phosphate (Pi) in the reaction was measured at 620 nm using the micro plate reader (Genios Pro, TECAN). The difference between the Pi production with K^+ and without K^+ is taken as K^+ stimulated H^+/K^+-ATPase activity.

T1 sequence (P19156 2-1034 limits assumed): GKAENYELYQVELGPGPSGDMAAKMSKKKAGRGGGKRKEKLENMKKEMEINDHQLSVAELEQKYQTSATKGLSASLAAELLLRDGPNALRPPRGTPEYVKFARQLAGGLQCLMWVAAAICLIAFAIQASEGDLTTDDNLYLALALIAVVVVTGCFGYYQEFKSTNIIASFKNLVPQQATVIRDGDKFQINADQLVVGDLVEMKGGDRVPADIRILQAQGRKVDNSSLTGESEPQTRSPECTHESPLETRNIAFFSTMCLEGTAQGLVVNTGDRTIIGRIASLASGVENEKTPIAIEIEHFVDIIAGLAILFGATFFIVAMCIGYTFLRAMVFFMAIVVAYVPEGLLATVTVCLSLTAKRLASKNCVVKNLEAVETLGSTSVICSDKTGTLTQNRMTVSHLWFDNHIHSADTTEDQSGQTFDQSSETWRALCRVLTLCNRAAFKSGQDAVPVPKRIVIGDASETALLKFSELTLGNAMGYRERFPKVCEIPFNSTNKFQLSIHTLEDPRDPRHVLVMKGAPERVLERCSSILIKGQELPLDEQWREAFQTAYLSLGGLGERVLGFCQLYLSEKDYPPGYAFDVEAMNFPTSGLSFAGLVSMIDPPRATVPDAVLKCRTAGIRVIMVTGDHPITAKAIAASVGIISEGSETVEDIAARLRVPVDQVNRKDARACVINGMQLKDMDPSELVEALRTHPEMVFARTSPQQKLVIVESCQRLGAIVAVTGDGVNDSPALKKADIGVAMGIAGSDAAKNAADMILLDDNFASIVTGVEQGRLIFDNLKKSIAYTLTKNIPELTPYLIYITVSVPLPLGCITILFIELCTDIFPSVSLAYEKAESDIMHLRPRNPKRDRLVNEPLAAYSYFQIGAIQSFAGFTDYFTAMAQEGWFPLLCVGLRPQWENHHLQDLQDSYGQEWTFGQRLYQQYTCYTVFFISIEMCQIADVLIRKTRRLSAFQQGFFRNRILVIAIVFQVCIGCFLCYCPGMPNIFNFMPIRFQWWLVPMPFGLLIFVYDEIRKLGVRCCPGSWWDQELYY
T1 sequence (P18434 whole entry partner): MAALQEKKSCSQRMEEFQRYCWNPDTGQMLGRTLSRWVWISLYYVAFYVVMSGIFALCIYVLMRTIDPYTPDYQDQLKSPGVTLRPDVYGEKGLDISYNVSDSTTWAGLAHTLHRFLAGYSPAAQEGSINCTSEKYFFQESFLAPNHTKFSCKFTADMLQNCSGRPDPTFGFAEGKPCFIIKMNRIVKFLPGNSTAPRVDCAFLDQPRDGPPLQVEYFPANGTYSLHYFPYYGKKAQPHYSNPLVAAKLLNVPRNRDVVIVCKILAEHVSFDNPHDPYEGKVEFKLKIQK

Compound	IC50 [nM]
COCCn1c(C)c(C)c2nccc(OCc3ccc(F)cc3)c21 [Example 132, 7-(4-fluorobenzyloxy)-1-(2-methoxyethyl)-2,3-dimethyl-1H-pyrrolo[3,2-b]pyridine oxalate]	50
CCOc1ccccc1COc1ccnc2c(C)c(C)n(CCOC)c12 [Example 162, 7-(2-ethoxybenzyloxy)-1-(2-methoxyethyl)-2,3-dimethyl-1H-pyrrolo[3,2-b]pyridine hydrochloride]	1150
Cc1nc2c(C)c(C)n(Cc3ccccc3)c2c(OCc2ccc(F)cc2)c1C [Example 264, 1-benzyl-7-(4-fluorobenzyloxy)-2,3,5,6-tetramethyl-1H-pyrrolo[3,2-b]pyridine hydrochloride]	3070
COCn1c(C)c(C)c2nccc(OCc3ccc(Cl)cc3)c21 [Example 74, 7-(4-chlorobenzyloxy)-1-methoxymethyl-2,3-dimethyl-1H-pyrrolo[3,2-b]pyridine hydrochloride]	1080
Cc1c(C)n(Cc2ccccc2)c2c(N3CCc4ccccc4C3)ccnc12 [Example 6, 1-benzyl-7-(1,2,3,4-tetrahydroisoquinolin-2-yl)-2,3-dimethyl-1H-pyrrolo[3,2-b]pyridine hydrochloride]	200
Cc1c(C)n(CC2OCCO2)c2c(OCc3ccc4c(c3)OCO4)ccnc12 [Example 100, 7-(benzo[1,3]dioxol-5-ylmethoxy)-1-([1,3]-dioxolan-2-ylmethyl)-2,3-dimethyl-1H-pyrrolo[3,2-b]pyridine hydrochloride]	2820
Cc1ccc(C)c(Cn2c(C)c(C)c3nccc(OCc4ccc(Cl)cc4)c32)c1 [Example 82, 7-(4-chlorobenzyloxy)-1-(2,5-dimethylbenzyl)-2,3-dimethyl-1H-pyrrolo[3,2-b]pyridine hydrochloride]	4700
CCOc1ccccc1COc1ccnc2c(C)c(C)n(Cc3cccc(OC)c3)c12 [Example 177, 7-(2-ethoxybenzyloxy)-1-(3-methoxybenzyl)-2,3-dimethyl-1H-pyrrolo[3,2-b]pyridine hydrochloride]	290
C=COCCn1c(C)c(C)c2nccc(OCc3ccc(F)cc3)c21 [Example 38, 7-(4-fluorobenzyloxy)-2,3-dimethyl-1-(2-vinyloxyethyl)-1H-pyrrolo[3,2-b]pyridine hydrochloride]	1310
COc1cccc(Cn2c(C)c(C)c3nccc(OCc4cccc(C)c4)c32)c1 [Example 159, 1-(3-methoxybenzyl)-2,3-dimethyl-7-(3-methylbenzyloxy)-1H-pyrrolo[3,2-b]pyridine hydrochloride]	880
Cc1c(C)n(CC2CCC2)c2c(OCc3cc(F)cc(F)c3)ccnc12 [Example 179, 1-cyclobutylmethyl-7-(3,5-difluorobenzyloxy)-2,3-dimethyl-1H-pyrrolo[3,2-b]pyridine hydrochloride]	570
Cc1c(C)n(Cc2ccc(F)cc2)c2c(OCc3ccc(Br)cc3)ccnc12 [Example 221, 7-(4-bromobenzyloxy)-1-(4-fluorobenzyl)-2,3-dimethyl-1H-pyrrolo[3,2-b]pyridine hydrochloride]	180
CCn1c(C)c(C)c2nccc(OCc3ccc(Cl)cc3)c21 [Example 90, 7-(4-chlorobenzyloxy)-1-ethyl-2,3-dimethyl-1H-pyrrolo[3,2-b]pyridine hydrochloride]	140
COCn1c(C)c(C)c2nccc(OCc3ccc(Cl)cc3Cl)c21 [Example 134, 7-(2,4-dichlorobenzyloxy)-1-methoxymethyl-2,3-dimethyl-1H-pyrrolo[3,2-b]pyridine hydrochloride]	540
COCCn1c(C)c(C)c2nccc(OCc3ccc(F)cc3)c21 [Example 128, 7-(4-fluorobenzyloxy)-1-(2-methoxyethyl)-2,3-dimethyl-1H-pyrrolo[3,2-b]pyridine maleate]	50
COC(=O)CCn1c(C)c(C)c2nccc(OCc3ccc(F)cc3)c21 [Example 57, 1-[2-(methoxycarbonyl)ethyl]-7-(4-fluorobenzyloxy)-2,3-dimethyl-1H-pyrrolo[3,2-b]pyridine hydrochloride]	270
CCn1c(C)c(C)c2nccc(OCc3cccc(C)c3)c21 [Example 145, 1-ethyl-2,3-dimethyl-7-(3-methylbenzyloxy)-1H-pyrrolo[3,2-b]pyridine hydrochloride]	530

Compound	IC50 [nM]
Cc1c(C)n(Cc2ccccc2F)c2c(N3CCc4ccccc4C3)ccnc12 [Example 9, 1-(2-fluorobenzyl)-7-(1,2,3,4-tetrahydroisoquinolin-2-yl)-2,3-dimethyl-1H-pyrrolo[3,2-b]pyridine hydrochloride]	330
CCn1c(C)c(C)c2nccc(N3CCc4ccccc4C3)c21 [Example 13, 1-ethyl-7-(1,2,3,4-tetrahydroisoquinolin-2-yl)-2,3-dimethyl-1H-pyrrolo[3,2-b]pyridine hydrochloride]	800
CC(C)=CCn1c(C)c(C)c2nccc(OCc3ccc(F)cc3)c21 [Example 56, hydrochloride]	570
Cc1ccc(Cn2c(C)c(C)c3nccc(OCc4ccc(Br)cc4)c32)cc1 [Example 224, 7-(4-bromobenzyloxy)-2,3-dimethyl-1-(4-methylbenzyl)-1H-pyrrolo[3,2-b]pyridine hydrochloride]	120
CC(C)=CCn1c(C)c(C)c2nccc(OCc3ccc(Cl)cc3Cl)c21 [Example 135, 7-(2,4-dichlorobenzyloxy)-2,3-dimethyl-1-(3-methylbut-2-enyl)-1H-pyrrolo[3,2-b]pyridine hydrochloride]	150
Cc1c(C)n(Cc2ccc(Cl)cc2)c2c(OCc3cc(F)cc(F)c3)ccnc12 [Example 183, 1-(4-chlorobenzyl)-7-(3,5-difluorobenzyloxy)-2,3-dimethyl-1H-pyrrolo[3,2-b]pyridine hydrochloride]	1210
Cc1cccc(COc2ccnc3c(C)c(C)n(Cc4ccccc4)c23)c1 [Example 144, 1-benzyl-2,3-dimethyl-7-(3-methylbenzyloxy)-1H-pyrrolo[3,2-b]pyridine hydrochloride]	240
COc1cccc(Cn2c(C)c(C)c3nccc(OCc4ccc(C(F)(F)F)cc4)c32)c1 [Example 201, 1-(3-methoxybenzyl)-2,3-dimethyl-7-(4-trifluoromethylbenzyloxy)-1H-pyrrolo[3,2-b]pyridine hydrochloride]	680
Cc1c(C)n(Cc2cccc(F)c2)c2c(OCc3ccc(Cl)cc3)ccnc12 [Example 93, 7-(4-chlorobenzyloxy)-1-(3-fluorobenzyl)-2,3-dimethyl-1H-pyrrolo[3,2-b]pyridine hydrochloride]	50
Cc1c(C)n(Cc2ccccc2)c2c(OCc3ccc(Cl)cc3Cl)ccnc12 [Example 136, 1-benzyl-7-(2,4-dichlorobenzyloxy)-2,3-dimethyl-1H-pyrrolo[3,2-b]pyridine hydrochloride]	50
COc1ccc(Cn2c(C)c(C)c3nccc(N4CCc5ccccc5C4)c32)cc1 [Example 10, 1-(4-methoxybenzyl)-7-(1,2,3,4-tetrahydroisoquinolin-2-yl)-2,3-dimethyl-1H-pyrrolo[3,2-b]pyridine hydrochloride]	690
Cc1c(C)n(Cc2cccc(F)c2)c2c(OCc3ccc4c(c3)OCO4)ccnc12 [Example 116, 7-(benzo[1,3]dioxol-5-ylmethoxy)-1-(3-fluorobenzyl)-2,3-dimethyl-1H-pyrrolo[3,2-b]pyridine hydrochloride]	150
1-(3-methylbuten-2-yl)-7-(1,2,3,4-tetrahydroisoquinolin-2-yl)-2,3-dimethyl-1H-pyrrolo[3,2-b]pyridine hydrochloride [Example 16]	190
CCOc1ccccc1COc1ccnc2c(C)c(C)n(CC3CCC3)c12 [Example 163, 1-cyclobutylmethyl-7-(2-ethoxybenzyloxy)-2,3-dimethyl-1H-pyrrolo[3,2-b]pyridine hydrochloride]	1010
CCn1c(C)c(C)c2nccc(OCc3ccc4c(c3)OCO4)c21 [Example 117, 7-(benzo[1,3]dioxol-5-ylmethoxy)-1-ethyl-2,3-dimethyl-1H-pyrrolo[3,2-b]pyridine hydrochloride]	720
Cc1c(C)n(CC2CNC(=O)O2)c2c(OCc3ccc(Cl)cc3)ccnc12 (stereo not drawn) [Example 81, 5-[7-(4-chlorobenzyloxy)-2,3-dimethyl-pyrrolo[3,2-b]pyridin-1-ylmethyl]-oxazolidin-2-one hydrochloride]	1250

Source: patent US7642269B2, “Pyrrolo[3,2-B]pyridine derivatives and processes for the preparation thereof” (Yuhan Corporation, priority 2005, dated 2010)
